These results are taken from article PMC4211885 (PLoS ONE, 2014).

Each structure is given as a SMILES string. “Also recorded” adds a separate entry of the source.

The target of test [1] is OA/TAMac receptor (Macrobrachium rosenbergii, UniProt D9U2B9). Description: Modulation of the transient calcium-dependent chloride current ICl-T in OA/TAMac-injected oocytes (voltage step protocol). Type of test: cell-based. Particulars: for Effect on ICl-T at lower concentration: 1 µM and 100 µM, 8 minute applications, n = 5 at each concentration; for Effect on ICl-T during prolonged application: 1 mM (high concentration), n = 4 oocytes. An excerpt: The fluctuations in holding current that we refer to as ID have often been referred to as the calcium-dependent chloride current. These currents are in fact complex and are known to contain multiple poorly defined components that arise from a number of unidentified potassium, chloride and mixed cationic channels, [47]. For this reason, we tested the effect of tyramine and octopamine on one of the better characterized components, the transient calcium-dependent chloride current that we refer to as ICl-T after. This current, which has been referred to as Iout, [54], ICl-2 [55] or ICl1-T [53], can be clearly isolated from ID using a specific pulse protocol (Fig. 6A). Furthermore, ICl-T is known to increase in response to inositol 1,4,5-triphosphate (IP3) injection, [55]. Modulation of this current therefore provides additional insight into how IP3 related pathways might be affected by transmitter application.
OA/TAMac receptor, sequence (D9U2B9 entry or part of it): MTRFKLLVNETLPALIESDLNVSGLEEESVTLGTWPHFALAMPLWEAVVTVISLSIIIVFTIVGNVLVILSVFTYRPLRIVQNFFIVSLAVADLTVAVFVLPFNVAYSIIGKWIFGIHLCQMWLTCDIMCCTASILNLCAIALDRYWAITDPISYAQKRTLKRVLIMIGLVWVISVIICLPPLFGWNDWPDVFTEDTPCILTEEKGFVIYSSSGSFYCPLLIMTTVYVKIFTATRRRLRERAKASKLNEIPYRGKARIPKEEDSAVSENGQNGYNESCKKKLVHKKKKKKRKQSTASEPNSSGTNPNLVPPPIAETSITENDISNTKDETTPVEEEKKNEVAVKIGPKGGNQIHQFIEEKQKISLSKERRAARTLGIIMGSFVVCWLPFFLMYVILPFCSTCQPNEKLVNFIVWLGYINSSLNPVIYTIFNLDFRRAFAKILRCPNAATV
Figure 6 Differential modulation of a transient chloride current by tyramine (TA) and octopamine (OA). ICl-T is an endogenous calcium-dependent transient chloride current coupled to extra-celluar calcium influx. It is thought to arise from a single type of channel. […] (A) The voltage command protocol used to measure ICl-T is shown with an example current. The first step to +40 mV from the holding potential of −20 mV evokes no ICl-T and provides the baseline. The hyperpolarizing step to −140 mV induces calcium influx that causes ICl-T to appear during the second step to +40 mV [53]. The amplitude of ICl-T was measured as the difference between the first step and the peak of the transient current evoked by the second. (B) Measurements of ICl-T were taken every minute during the ID evoked by long applications of 1 mM TA and 1 mM OA. The vertical lines are the currents evoked by the voltage command pulse used to measure ICl-T (as shown in A). Their true amplitude was clipped from the image during figure preparation. Below the trace individual ICl-T transients are shown. Δ ICl-T is the difference in amplitude of these transients measured at different time points. The amplitude of ICl-T increases during continuous TA application and decreases during continuous OA application. There was a 38 minute washout period between the TA and OA applications. […]
ICl-T was measured under two-electrode voltage-clamp by hyperpolarizing the oocyte to −140 mV after a step to +40 mV and stepping back to +40 mV (Fig. 6A). […] ICl-T is measured instead of Icat because ICl-T is a pure chloride conductance that likely arises from one ion channel population while Icat is complex arising from more than one conductance.
We monitored ICl-T over the course of extended transmitter applications using the described pulse protocol. […]

Test [2] relates to CFTR conductance (intracellular cAMP). Description: cAMP detection by whole oocyte (CFTR) conductance in oocytes co-expressing CFTR and OA/TAMac. Type of test: cell-based, Xenopus laevis. The following applies: for Increase in cAMP levels (CFTR conductance): OA and TA at 100 µM or 1000 µM. The source says:
It is also unlikely that the effects of tyramine at high concentration result from an increase in cAMP. It is common that octopaminergic GPCRs can couple through the canonical Gαs/cAMP pathway so we used co-expression of the Cystic Fibrosis Trans-membrane Conductance Regulator (CFTR) as a means of testing for increases in cAMP (see methods for more detail) [60]–[63].
As a means of detecting rises in intracellular cAMP levels we tested oocytes co-expressing the CFTR channel and OA/TAMac. Heterologously expressed CFTR can be used as an extremely sensitive assay for intracellular cAMP in Xenopus oocytes. CFTR mediates a chloride-selective leak conductance that is activated by increases in intracellular cAMP [63]. Activity of CFTR can thus be used to indicate whether changes in cAMP correspond with ligand application [60]–[62]. Whole oocyte conductance was monitored using a step protocol and calculated from I/V plots. The command voltage was stepped from the holding potential to various levels (−10 mV to −55 mV in −5 mV increments) for 150 ms. The steady state current during each step was plotted against the command voltage and fit to a line using Clampfit 10 software (Fig. S7A). The slope of the line was taken as the conductance. To minimize the magnitude of the holding current between drug applications, oocytes expressing CFTR were typically held at −20 mV which is close to the typical chloride reversal potential. This was confirmed by the fact that the direct-current evoked by forskolin could appear inward or outward at −20 mV. Oocytes expressing either OA/TAMac alone or OA/TAMac and CFTR typically had resting membrane potentials between −20 mV and −30 mV (mean of −26±5 mV calculated from oocytes in Fig. S7) due to increased expression of endogenous chloride currents.
(A) The measurement of whole oocyte conductance was done by plotting steady state current against the command voltage recorded during a step protocol. It is defined as the slope (I/V) of the linear least squares regression line. In the example shown tyramine (TA) causes no apparent change in whole oocyte conductance. Octopamine (OA) causes a small change compared to the adenylate cyclase activator forskolin (FSK). […] These cumulative data are from 20 OA/TAMac and CFTR-injected oocytes and 6 OA/TAMac -only injected oocytes. Conductance was measured as shown in A. Not all compounds were tested in all oocytes. Each response is treated as an independent sample. Concentrations of OA and TA were at 100 µM or 1000 µM, FSK was at 50 µM. Some points obtained at 3 minutes were grouped with the 4 minute responses. (C) The change in conductance (Δg) occurring within oocytes as determined by the difference between baseline and the indicated time points post-application of compound. […]
Background: Cyclic AMP is a second messenger, typically raised through Gs and lowered through Gi signalling.

For `NCC(O)c1ccc(O)cc1` (racemic) [octopamine, (+/−)-octopamine], in test [1], the “Effect on ICl-T at lower concentration” value is listed as “no apparent effect” and the “Effect on ICl-T during prolonged application” value is “reversibly decreases; also recorded: decreased”. Moreover, the “Increase in cAMP levels (CFTR conductance)” value in test [2] is listed as “neither octopamine nor tyramine produced significant increases”.
For `NCCc1ccc(O)cc1` [tyramine], in test [1], the “Effect on ICl-T at lower concentration” value is “increase” and the “Effect on ICl-T during prolonged application” value is “reversibly increases; also recorded: increased”. The “Increase in cAMP levels (CFTR conductance)” value in test [2] is listed as “neither octopamine nor tyramine produced significant increases”. Moreover, the “Mean change in conductance (Δg) within oocytes” value in test [2] (compiled from 12 oocytes, s.d. = 1.72 µS, high conductance outlier excluded) is listed as 0.30 µS.
